Key:
[1] = system: Human Jurkat-E6-1 cells; assay: Detection of IL-2 production by Jurkat cells using ELISA; format: cell-based; conditions: anti-CD3/anti-CD28 stimulation 24 hours, read-out: Percentage of the amount of IL-2 secreted by compound treated vs DMSO-treated cells; for activity at 1 µM: tested compound 1.0 μM
In short: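 Jurkat E6-1 cells were pre-incubated with compound for 30 min at 37 °C, then stimulated 24 h on plate-bound anti-CD3 plus soluble anti-CD28. Secreted IL-2 in supernatant was measured by sandwich ELISA (450 nm) against a standard curve and expressed as % of DMSO-treated cells.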

[2] = target: HPK1 (Homo sapiens, UniProt Q92918); assay: HPK1 kinase activity inhibition test (ADP-Glo, luminescence); format: biochemical; conditions: 2 μM ATP, 5 nM HPK1, read-out: IC50, inhibitory effects on HPK1 kinase activity
Chain of HPK1 (Q92918 whole entry): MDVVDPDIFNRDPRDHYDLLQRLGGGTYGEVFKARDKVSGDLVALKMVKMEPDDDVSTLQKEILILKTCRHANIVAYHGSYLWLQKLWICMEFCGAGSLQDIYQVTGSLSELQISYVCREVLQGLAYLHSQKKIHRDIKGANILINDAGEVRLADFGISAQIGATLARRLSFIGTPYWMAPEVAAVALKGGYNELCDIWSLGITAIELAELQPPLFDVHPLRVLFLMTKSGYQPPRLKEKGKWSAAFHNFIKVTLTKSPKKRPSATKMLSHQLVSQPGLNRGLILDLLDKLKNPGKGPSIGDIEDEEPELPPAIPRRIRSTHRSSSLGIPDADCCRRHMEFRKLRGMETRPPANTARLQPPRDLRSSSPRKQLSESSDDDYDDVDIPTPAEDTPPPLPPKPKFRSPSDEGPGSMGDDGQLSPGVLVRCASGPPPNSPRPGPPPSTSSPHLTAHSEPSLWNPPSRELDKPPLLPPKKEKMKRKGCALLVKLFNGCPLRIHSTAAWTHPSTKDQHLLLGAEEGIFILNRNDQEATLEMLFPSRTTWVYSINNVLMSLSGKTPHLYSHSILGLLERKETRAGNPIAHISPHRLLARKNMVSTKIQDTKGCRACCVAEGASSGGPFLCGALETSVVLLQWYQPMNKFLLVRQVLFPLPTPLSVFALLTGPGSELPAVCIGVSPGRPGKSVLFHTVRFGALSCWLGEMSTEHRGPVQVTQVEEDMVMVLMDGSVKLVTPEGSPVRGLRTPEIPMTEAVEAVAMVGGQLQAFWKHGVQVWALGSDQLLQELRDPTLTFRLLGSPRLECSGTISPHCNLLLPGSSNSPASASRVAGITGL
In short: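 Autophosphorylation assay without added substrate: HPK1 preincubated with compound 10 min at 25 °C, then ATP added for 60 min at 25 °C; final DMSO 0.5%. ADP measured by ADP-Glo luminescence; IC50 from four-parameter nonlinear fit.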

[3] = system: MV-4-11 cells; assay: Detection of MV-4-11 cell activity (CellTiter-Glo); format: cell-based; conditions: Homo sapiens, MV4-11, 120 h, 5 days, CTG, read-out: IC50, inhibitory effects on MV-4-11 cell activity
Description: The CellTiter-Glo (CTG) luminescence method was used to detect the effect of compounds on the activity of MV-4-11 cells.
Tested compounds: compound prepared in the Examples of the present invention.
Add 100 μL containing 20,000 MV-4-11 (human myeloid monocytic leukemia cells, from the Cell Bank of the Chinese Academy of Sciences, Cat. No. SCSP-5031) cell suspension to 96-well flat-bottom clear-bottomed cell plates (Corning, Cat #3603), and then add 100 μL of cell culture medium containing a series of concentrations of the compound to be tested, with a total volume of 200 μL per well. The final gradient concentrations of the compounds were 500 nM, 125 nM, 31.25 nM, 7.813 nM, 1.953 nM, 0.488 nM, 0.122 nM, 0.031 nM, and 0.008 nM, and the final DMSO content was 0.5%. Set cells with the cell culture medium containing 0.5% DMSO but without compounds as the 100% control; set the culture medium wells without cells as 0% background control. Incubate the cell plate in a humidified incubator at 37° C. and 5% CO2 for 5 days. After 5 days, take out the cell plate, centrifuge (1000 rpm) for 5 minutes, remove and discard 100 μL supernatant, add 100 μL CTG reagent (Promega, Cat #G7572) to each well, shake at room temperature for 10 minutes to promote cell lysis, and incubate at room temperature for 30 minutes to stabilize the luminescence signal. Use a microplate reader (Molecular Device, i3X) to read the Luminescent fluorescence value, use GraphPad Prism 5.0 software to analyze the original data, use nonlinear S-curve regression to fit the data to obtain the dose-effect curve (cell survival rate %), and calculate the IC50 value.

[4] = target: KDR (Homo sapiens, UniProt P35968); assay: KDR kinase activity inhibition test (HTRF); format: biochemical; conditions: read-out: IC50, inhibitory effects on KDR kinase activity
Chain of KDR (P35968 20-1356): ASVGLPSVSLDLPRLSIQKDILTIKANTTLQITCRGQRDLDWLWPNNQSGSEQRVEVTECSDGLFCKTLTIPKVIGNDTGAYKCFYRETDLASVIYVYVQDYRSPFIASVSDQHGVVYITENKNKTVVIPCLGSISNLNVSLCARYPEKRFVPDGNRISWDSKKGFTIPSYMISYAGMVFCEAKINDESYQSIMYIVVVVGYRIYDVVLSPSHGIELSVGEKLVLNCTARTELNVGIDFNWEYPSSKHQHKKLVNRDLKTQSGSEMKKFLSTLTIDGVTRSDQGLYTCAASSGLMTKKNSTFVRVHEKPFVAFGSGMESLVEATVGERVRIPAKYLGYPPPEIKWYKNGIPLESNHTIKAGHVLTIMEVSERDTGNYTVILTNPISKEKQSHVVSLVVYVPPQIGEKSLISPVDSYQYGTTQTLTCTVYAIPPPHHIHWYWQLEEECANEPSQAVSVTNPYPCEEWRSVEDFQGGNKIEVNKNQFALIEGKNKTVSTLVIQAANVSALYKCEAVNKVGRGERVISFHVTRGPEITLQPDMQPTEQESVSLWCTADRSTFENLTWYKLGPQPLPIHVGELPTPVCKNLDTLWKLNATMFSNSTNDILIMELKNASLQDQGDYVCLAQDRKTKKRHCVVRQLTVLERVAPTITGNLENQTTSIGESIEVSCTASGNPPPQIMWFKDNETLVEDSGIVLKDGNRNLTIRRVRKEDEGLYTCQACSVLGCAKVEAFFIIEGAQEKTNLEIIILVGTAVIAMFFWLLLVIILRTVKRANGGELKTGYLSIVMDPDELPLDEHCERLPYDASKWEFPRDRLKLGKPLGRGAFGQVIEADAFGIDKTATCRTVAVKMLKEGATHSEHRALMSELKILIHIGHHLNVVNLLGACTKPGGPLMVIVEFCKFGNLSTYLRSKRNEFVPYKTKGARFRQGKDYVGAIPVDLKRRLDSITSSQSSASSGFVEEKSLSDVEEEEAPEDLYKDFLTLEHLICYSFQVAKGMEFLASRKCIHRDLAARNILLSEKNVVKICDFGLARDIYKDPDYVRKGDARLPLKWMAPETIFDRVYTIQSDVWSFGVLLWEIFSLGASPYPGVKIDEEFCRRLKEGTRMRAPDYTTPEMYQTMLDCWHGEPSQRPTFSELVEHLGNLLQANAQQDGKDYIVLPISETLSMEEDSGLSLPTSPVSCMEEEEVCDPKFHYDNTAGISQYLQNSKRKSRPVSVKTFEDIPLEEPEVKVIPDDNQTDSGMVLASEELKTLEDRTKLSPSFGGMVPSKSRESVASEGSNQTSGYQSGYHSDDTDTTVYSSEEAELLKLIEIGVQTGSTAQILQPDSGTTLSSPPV
Description: (§1) Tested compounds: compounds prepared in the Examples of this invention.
(§2) Prepare compound stock solution: dissolve the test compound in 100% DMSO to make a 10 mM stock solution. Dilute the stock solution of the test compound by 5 times with 100% DMSO, make a 4-fold equal dilution in a 96-well dilution plate, add 1 μL of the compound to 39 μL of kinase reaction buffer (1×kinase buffer, 5 mM MgCl2, 1 mM DTT), and shake on a microplate shaker for 20 minutes. 4×Positive control (4 μL of positive compound solution of the starting concentration, add 196 μL of kinase buffer) and 4×negative control (4 μL of 100% DMSO, add 196 μL of kinase buffer).
(§3) (1) Use 1×kinase reaction buffer to prepare 2.5×KDR kinase solution (250 μM), transfer 2 μL of the kinase solution to the 384 reaction plate, and add 1 μL of the test compound solution of gradient concentration to the 384 reaction plate (Greiner, Cat #784075), centrifuge for 1 minute (1000 rpm), and incubate at 25° C. for 10 minutes.
(§4) (2) Use 1×kinase reaction buffer to prepare 2.5×TK-substrate-biotin (2.5 μM) and 2.5×ATP (2.5 μM), mix well, and add 2 μL of the TK-substrate-biotin/ATP solution to the 384 reaction plate, centrifuge for 30 seconds (1000 rpm), and incubate at 25° C. for 40 minutes.
(§5) (3) Use HTRF detection buffer to prepare 2×Sa-XL 665 (125 nM) and 1×TK-antibody-Cryptate. Add 5 μL of a mixture of Sa-XL 665 and TK-antibody-Cryptate solutions to each well, centrifuge for 30 seconds (1000 rpm), and react at room temperature for 1 hour.
(§6) (4) The fluorescence signal is read using a Biotek multi-function plate reader, and the IC50 (half inhibitory concentration) of the compound is obtained using a four-coefficient nonlinear fitting formula.

[5] = target: T1, FLT3 (Homo sapiens, UniProt P36888); assay: FLT3 kinase activity inhibition test (HTRF); format: biochemical; conditions: read-out: IC50, inhibitory effects on FLT3 kinase activity
T1 sequence (P36888 27-993): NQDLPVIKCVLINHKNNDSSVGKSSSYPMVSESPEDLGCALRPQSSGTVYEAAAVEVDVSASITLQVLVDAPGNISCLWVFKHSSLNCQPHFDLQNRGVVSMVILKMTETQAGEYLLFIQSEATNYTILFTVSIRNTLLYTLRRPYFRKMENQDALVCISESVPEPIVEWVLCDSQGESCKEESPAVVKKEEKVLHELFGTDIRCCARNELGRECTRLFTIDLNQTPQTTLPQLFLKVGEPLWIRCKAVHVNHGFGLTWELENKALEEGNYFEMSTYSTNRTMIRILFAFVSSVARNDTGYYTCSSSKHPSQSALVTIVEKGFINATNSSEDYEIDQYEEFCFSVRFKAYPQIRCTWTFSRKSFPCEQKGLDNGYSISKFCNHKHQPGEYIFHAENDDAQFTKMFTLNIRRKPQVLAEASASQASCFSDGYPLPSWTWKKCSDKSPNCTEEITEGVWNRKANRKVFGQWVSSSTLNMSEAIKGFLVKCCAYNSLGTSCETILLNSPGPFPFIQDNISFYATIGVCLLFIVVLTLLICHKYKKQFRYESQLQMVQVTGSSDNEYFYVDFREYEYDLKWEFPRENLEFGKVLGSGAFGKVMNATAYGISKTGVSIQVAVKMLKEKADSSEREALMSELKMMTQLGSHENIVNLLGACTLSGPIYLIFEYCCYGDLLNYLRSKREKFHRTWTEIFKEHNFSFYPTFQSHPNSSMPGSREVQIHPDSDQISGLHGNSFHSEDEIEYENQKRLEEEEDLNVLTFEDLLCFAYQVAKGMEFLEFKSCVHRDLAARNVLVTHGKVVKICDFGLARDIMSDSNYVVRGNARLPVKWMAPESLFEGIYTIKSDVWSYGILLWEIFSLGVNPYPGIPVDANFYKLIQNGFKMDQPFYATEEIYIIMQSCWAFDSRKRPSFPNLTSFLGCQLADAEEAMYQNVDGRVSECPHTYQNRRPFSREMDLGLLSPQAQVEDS
Description: as §1, §2
as §3, with “2.5×FLT3” for “2.5×KDR”, “(160” for “(250”
as §4, §5, §6

Row | SMILES | IC50 [2] [nM] | IC50 [3] [nM] | IC50 [4] [nM] | IC50 [5] [nM] | activity at 3 µM ([1]; tested compound 3.0 μM) [%] | activity at 0.33 µM ([1]; tested compound 0.33 μM) [%] | activity at 1 µM [1] [%]
1 | Fc1cccc2c1-c1cc3c(n[nH]c3cn1)-c1ccc(N3CCOCC3)c(c1)OCCCO2 [Compound 5, 16-fluoro-5-(morpholin-4-yl)-7,11-dioxa-19,22,23-triazapentacyclo[16.5.2.1^2,6.0^12,17.0^21,24]hexacosa-1(23),2(26),3,5,12,14,16,18,20,24-decaene] | 5 to 50 | 50 | – | – | 717 | – | –
2 | CN1C2CCC1CN(c1ccc3cc1OCCCOc1cccc(F)c1-c1cc4c-3n[nH]c4cn1)C2 [Compound 144, 16-fluoro-5-{8-methyl-3,8-diazabicyclo[3.2.1]octan-3-yl}-7,11-dioxa-19,22,23-triazapentacyclo[16.5.2.1^2,6.0^12,17.0^21,24]hexacosa-1(23),2,4,6(26),12(17),13,15,18,20,24-decaene] | ≤ 5 | – | ≤ 5 | ≤ 5 | – | – | 517
3 | CN1C[C@@H]2C[C@H]1CN2c1ccc2cc1OCCCOCc1cccc(F)c1-c1cc3c-2n[nH]c3cn1 [Compound 151, 17-fluoro-5-[(1S,4S)-5-methyl-2,5-diazabicyclo[2.2.1]heptan-2-yl]-7,11-dioxa-20,23,24-triazapentacyclo[17.5.2.1^2,6.0^13,18.0^22,25]heptacosa-1(24),2,4,6(27),13(18),14,16,19,21,25-decaene] | ≤ 5 | – | ≤ 5 | ≤ 5 | – | – | 416

Now from value to compound, other results behind:

Row | IC50 [2] [nM] | IC50 [3] [nM] | IC50 [4] [nM] | IC50 [5] [nM] | SMILES | activity at 3 µM ([1]; tested compound 3.0 μM) [%] | activity at 0.33 µM ([1]; tested compound 0.33 μM) [%] | activity at 1 µM [1] [%]
4 | ≤ 5 | 6.1 | ≤ 5 | ≤ 5 | CN1CCN(c2ccc3cc2OCCCOCc2cccc(F)c2-c2cc4c-3n[nH]c4cn2)CC1 [Compound 11, 17-fluoro-5-(4-methylpiperazin-1-yl)-7,11-dioxa-20,23,24-triazapentacyclo[17.5.2.1^2,6.0^13,18.0^22,25]heptacosa-1(24),2(27),3,5,13,15,17,19,21,25-decaene] | – | – | –
5 | ≤ 5 | – | ≤ 5 | ≤ 5 | CN1CCN(c2ccc3cc2OCCCOCc2cccc(F)c2-c2cc4c-3n[nH]c4cn2)C[C@H]1CO [Compound 122, [(2S)-4-{17-fluoro-7,11-dioxa-20,23,24-triazapentacyclo[17.5.2.1^2,6.0^13,18.0^22,25]heptacosa-1(24),2,4,6(27),13(18),14,16,19,21,25-decaen-5-yl}-1-methylpiperazin-2-yl]methanol] | – | 345 | –

Reference: US20240383911A1, “AZAINDAZOLE MACROCYCLE COMPOUNDS AND USES THEREOF” (BROADENBIO CO., LTD, priority 2021, published 2024)
